# Measurements: PubChem BioAssay AID1963856 (Molecular Pharmacology Branch, DTP, NCI, 2024)
# Test system: LG0567-F671-PDC KRAS tumor spheroid viability
# Experiment: Anticancer human tumor LG0567-F671-PDC patient-derived lung adenocarcinoma cell line growth inhibition [KRAS2]
# Conditions: spheroids with HUVEC and MSC; for IC50: curve of first compound; for viability, T/C: stronger effect = lower value
# Procedure, shortened: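 Combination screen of spheroid viability in tumor-cell co-cultures with endothelial (HUVEC) and mesenchymal stem cell stroma. Each agent was tested in half-log dilutions, topping at clinical Cmax or at 10 microM without a known Cmax.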
# [1] = second compound 0.1 µM, first compound 0.01 µM
# [2] = second compound 0.1 µM, first compound 0.0316 µM
# [3] = second compound 0.1 µM, first compound 0.1 µM
# [4] = second compound 0.1 µM, first compound 0.316 µM
# [5] = second compound 0.1 µM, first compound 1 µM
# [6] = second compound 0.1 µM, first compound 3.16 µM
# [7] = second compound 0.316 µM, first compound 0.01 µM
# [8] = second compound 0.316 µM, first compound 0.0316 µM
# [9] = second compound 0.316 µM, first compound 0.1 µM
# [10] = second compound 0.316 µM, first compound 0.316 µM
# [11] = second compound 0.316 µM, first compound 1 µM
# [12] = second compound 0.316 µM, first compound 3.16 µM
# [13] = second compound 1 µM, first compound 0.01 µM
# [14] = second compound 1 µM, first compound 0.0316 µM
# [15] = second compound 1 µM, first compound 0.1 µM
# [16] = second compound 1 µM, first compound 0.316 µM
# [17] = second compound 1 µM, first compound 1 µM
# [18] = second compound 1 µM, first compound 3.16 µM
# [19] = second compound 3.16 µM, first compound 0.01 µM
# [20] = second compound 3.16 µM, first compound 0.0316 µM
# [21] = second compound 3.16 µM, first compound 0.1 µM
# [22] = second compound 3.16 µM, first compound 0.316 µM
# [23] = second compound 3.16 µM, first compound 1 µM
# [24] = second compound 3.16 µM, first compound 3.16 µM
# [25] = second compound 10 µM, first compound 0.01 µM
# [26] = second compound 10 µM, first compound 0.0316 µM
# [27] = second compound 10 µM, first compound 0.1 µM
# [28] = second compound 10 µM, first compound 0.316 µM
# [29] = second compound 10 µM, first compound 1 µM
# [30] = second compound 10 µM, first compound 3.16 µM
# 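Further: drug exposure lasted seven days after spheroids formed for three days.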
# 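Wherever viability, T/C is given: 100% = DMSO vehicle control viability.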
SMILES,IC50 (second compound 0.1 µM),IC50 (second compound 0.316 µM),IC50 (second compound 1 µM),IC50 (second compound 3.16 µM),IC50 (second compound 10 µM),"viability, T/C [2]","viability, T/C [3]","viability, T/C [4]","viability, T/C [5]","viability, T/C [8]","viability, T/C [9]","viability, T/C [10]","viability, T/C [11]","viability, T/C [14]","viability, T/C [15]","viability, T/C [16]","viability, T/C [17]","viability, T/C [20]","viability, T/C [21]","viability, T/C [22]",further results
CC1COCCN1c1cc(-c2ccnn2C)c2ccnc(-c3ccn[nH]3)c2n1 (stereo not given) + COc1cc2nc(C)nc(NC(C)c3cc(N)cc(C(F)(F)F)c3)c2cc1OC1CCOC1,0.219 µM,0.0791 µM,0.0677 µM,0.0144 µM,0.0461 µM,60.8%,50.1%,56.2%,41.2%,70.7%,46.7%,23.8%,15.3%,59.6%,44.2%,36.2%,16.9%,37.9%,21.8%,10.1%,"viability, T/C [1]: 91.9%; viability, T/C [6]: 15.7%; viability, T/C [7]: 84%; viability, T/C [12]: 36.7%; viability, T/C [13]: 79.3%; viability, T/C [18]: 18.4%; viability, T/C [19]: 55.5%; viability, T/C [23]: 4.98%; viability, T/C [24]: 24.5%; viability, T/C [25]: 53.2%; viability, T/C [26]: 54.3%; viability, T/C [27]: 43.6%; viability, T/C [28]: 29.6%; viability, T/C [29]: 32.2%; viability, T/C [30]: 22.1%"
CCN1CCN(Cc2ccc(Nc3ncc(F)c(-c4cc(F)c5nc(C)n(C(C)C)c5c4)n3)nc2)CC1 + COc1cc2nc(C)nc(NC(C)c3cc(N)cc(C(F)(F)F)c3)c2cc1OC1CCOC1,0.913 µM,0.0473 µM,0.00774 µM,< 0.00316 µM,0.00532 µM,54.3%,56.7%,54.8%,47.3%,51.5%,47.5%,44.2%,45.3%,45.7%,38.7%,32.2%,42.4%,34.7%,33.6%,29.4%,"viability, T/C (second compound 0.1 µM, first compound 0.00316 µM): 70.5%; viability, T/C [1]: 64.7%; viability, T/C (second compound 0.316 µM, first compound 0.00316 µM): 69%; viability, T/C [7]: 64.2%; viability, T/C (second compound 1 µM, first compound 0.00316 µM): 57.3%; viability, T/C [13]: 47.3%; viability, T/C (second compound 3.16 µM, first compound 0.00316 µM): 44.4%; viability, T/C [19]: 39.5%; viability, T/C [23]: 30.8%; viability, T/C (second compound 10 µM, first compound 0.00316 µM): 60.8%; viability, T/C [25]: 34.8%; viability, T/C [26]: 26.5%; viability, T/C [27]: 9.45%; viability, T/C [28]: 0.94%; viability, T/C [29]: 0.43%"
CCNC(=O)CC1N=C(c2ccc(Cl)cc2)c2cc(OC)ccc2-n2c(C)nnc21 (stereo not given) + COc1cc2nc(C)nc(NC(C)c3cc(N)cc(C(F)(F)F)c3)c2cc1OC1CCOC1,0.41 µM,0.411 µM,0.403 µM,0.319 µM,0.224 µM,97%,82.3%,61.6%,17.1%,109%,96.5%,62.3%,10%,84.6%,87.8%,60.9%,9.34%,78.9%,69.9%,50.8%,"viability, T/C [6]: 8.29%; viability, T/C (second compound 0.1 µM, first compound 10 µM): 5.17%; viability, T/C [12]: 8.83%; viability, T/C (second compound 0.316 µM, first compound 10 µM): 7.95%; viability, T/C [18]: 7.07%; viability, T/C (second compound 1 µM, first compound 10 µM): 8.48%; viability, T/C [23]: 9.17%; viability, T/C [24]: 6.95%; viability, T/C (second compound 3.16 µM, first compound 10 µM): 10.1%; viability, T/C [26]: 74.5%; viability, T/C [27]: 59.8%; viability, T/C [28]: 47.5%; viability, T/C [29]: 20.6%; viability, T/C [30]: 10%; viability, T/C (second compound 10 µM, first compound 10 µM): 8.82%"
